Measurements as given in patent publication EP3441077A1, “PHARMACEUTICAL PRODUCT FOR TREATING ANKYLOSING SPONDYLITIS AND COMBINED IMMUNE DEFECT, AND PREPARATION AND APPLICATION THEREOF” (Beijing Lu De Kai Qi Co., Ltd., priority 2016, dated 2017).
Where two headings read alike, the source gives them in different places. Marks after values point to notes of the source that are not given here.

Columns and labels:
[1] = system: mouse bone marrow polychromatic erythrocytes; details: 50 mg/kg•bw, positive control; for Number of micronucleus: 5000 cells examined; for Micronucleus rate (‰): P<0.01 vs negative control
Protocol: Test animals: The healthy Kunming mice provided by the Experimental Animal Center of the National Institute for the Control of Pharmaceutical and Biological Products are selected. • 3. Mouse bone marrow polychromatic erythrocyte micronucleus assay The assay was carried out via oral gavage and the administration was performed twice at intervals of 24 hr. 50 mice weighing 25-30 g are randomly divided into 5 groups according to body weight, 10 in each group, half male and half female. […] The doses of the pharmaceutical product for treating ankylosing spondylitis for combined immunodeficiency according to the present invention are 2.50, 5.00, and 10.00 g/kg•bw, respectively, which were adjusted to the desired concentration with distilled water. The animals were sacrificed by cervical dislocation six hours after the last administration of the pharmaceutical product for treating ankylosing spondylitis for combined immunodeficiency according to the present invention. The bone marrow of sternum was diluted with calf serum, smeared, fixed in methanol, and stained with Giemsa. Under the light microscope, 1000 polychromatic erythrocytes (PRC) were measured per animal, and the incidence of micronucleus was determined by the permillage of micronucleus-containing PRC and statistical process is performed.

[2] = system: male mice; details: 40 mg/kg•bw, positive control
Protocol: Sperm abnormality assay in mice 50 sexually mature male mice weighing 30-35 g is randomly divided into 5 groups. […] The doses of the pharmaceutical product for treating ankylosing spondylitis for combined immunodeficiency according to the present invention is 1.25, 2.50, and 5.00 g/kg•bw, respectively, which were adjusted to the desired concentration with distilled water. The mice were administered via oral gavage once a day for 5 days, and the animals were sacrificed 30 days after the last gavage. The epididymis is sectioned and stained with eosin. Five animals were measured in each group and 1000 spermatozoa with intact structural were measured per animal, by which the incidence of sperm abnormality (in percentage) was calculated and statistical process is performed. […] Table 3 Statistical results of sperm abnormality assay in mice

[3] = system: patients with ankylosing spondylitis; assay: Clinical trial in patients with ankylosing spondylitis; format: in vivo, human; details: for Cure / Effective / Improved / Ineffective / excellence / upturn: 100 patients per group
Protocol: Clinical trials were performed in patients with ankylosing spondylitis. The criteria for inclusion are as follows: • (1) The New York Standard for Ankylosing Spondylitis revised in 1984 is met. • (2) The diagnostic criteria for the "renal deficiency and cold syndrome" of Ankylosing Spondylitis in Traditional Chinese Medicine is met. It is obtained by reference to the "Guidelines for Clinical Research of New Pharmaceutical products for Treating Arthralgia" and combined with the clinical experience of Professor Jiao Shude and Professor Yan Xiaoping. […] The five criteria for IBP are: age of onset <40 years old; insidious onset; improvement after exercise; no improvement after rest; and nocturnal pain (improvement after getting up). If the patient meets 4 of them, he or she can be confirmed to have IBP (sensitivity 77.0%, specificity 91.7%). […] Treatment method: a randomized control method was used. There are 100 patients in the test group, 100 patients in the control group 1, and 100 patients in the control group 2. […] Control group 1: the patients were orally administrated with loxoprofen sodium from Sankyo Co. Ltd., Japan twice a day in the morning and evening, and 3 months is a course of treatment. Control group 2: the patients were orally administrated with the traditional Chinese medicine for treating ankylosing spondylitis prepared in the examples of CN102091137B twice a day in the morning and evening, and 3 months is a course of treatment. No other medications for ankylosing spondylitis is administered during the course of treatment. In particular, the traditional Chinese medicine for treating ankylosing spondylitis prepared in the examples of CN102091137B is prepared as following: weighing the raw materials that contain in the formula ,that is 10 g of rhizoma cibotii, 15 g of pilose antler, 10 g of dipsacus asper, 5 g of scorpio, 15 g of kudzu vine root, 12 g of chuanxiong rhizome, 5 g of caulis spatholobi, 15 g of white paeony root, 15 g of common peony root, 10g of safflower carthamus, 15 g of medicinal cyathula root and 10 g of white mustard seed, adding 1500 ml of water, decocting with slow fire to concentrate the medicine liquid to 250 ml, filtering dregs of a decoction and preparing a decoction. Table 8 Indicators for efficacy evaluation in this clinical trial [table] […] Table 9 Statistical results of clinical trial After taking three courses of treatment, all the patients in the three groups stopped taking medication, and whether the symptoms were aggravated or slowed down was observed one month, three months, and twelve months after pharmaceutical product withdrawal. If the symptoms after a period of drug withdrawal were more serious than the symptoms at the time of drug withdrawal, it was labeled as "-", otherwise labeled as "+". If there were two grades in the difference, it was labeled as […]. For example, if the therapeutic effect of patient A at the time of drug withdrawal was improved, and the therapeutic effect twelve months after drug withdrawal was Ineffective, it was labeled as "-2". Table 10 Statistical results of clinical trial after pharmaceutical product withdrawal

[4] = At the time of drug withdrawal (after three courses)
[5] = One course of treatment (3 months), oral twice a day, graded per Table 8
[6] = One month after drug withdrawal
[7] = Three courses of treatment, oral twice a day, graded per Table 8
[8] = Twelve months after drug withdrawal
[9] = three months after drug withdrawal

SMILES: O=P1(N(CCCl)CCCl)NCCCO1 (stereo not shown) [cp, cyclophosphamide]
- Number of micronucleus ([1]; Female mice): 150
- Micronucleus rate (‰) ([1]; Female mice): 30.0* ‰
- Number of micronucleus ([1]; Male mice): 167
- Micronucleus rate (‰) ([1]; Male mice): 33.4* ‰
- Number of abnormal sperms ([2]; 5000 sperms examined): 487
- Rate of sperm abnormality (%) ([2]; P<0.01 vs negative control): 9.74* %

SMILES: CC(C(=O)O)c1ccc(CC2CCCC2=O)cc1 (stereo not shown) [loxoprofen sodium]
- Cure [3, 4]: 0 case
- Effective [3, 4]: 36 case
- Improved [3, 4]: 3 case
- Ineffective [3, 4]: 61 case
- Cure [3, 5]: 0 case
- Ineffective [3, 5]: 82 case
- excellence [3, 5]: 0 case
- upturn [3, 5]: 18 case
- Cure [3, 6]: 0 case
- Effective [3, 6]: 31 case
- Improved [3, 6]: 2 case
- Ineffective [3, 6]: 67 case
- Cure [3, 7]: 0 case
- Ineffective [3, 7]: 61 case
- excellence [3, 7]: 3 case
- upturn [3, 7]: 36 case
- Cure [3, 8]: 0 case
- Effective [3, 8]: 9 case
- Improved [3, 8]: 0 case
- Ineffective [3, 8]: 91 case
- course of the therapeutic effect after withdrawal (in words) ([3]; after three courses of treatment and then withdrawal): had more disease relapse
- Cure [3, 9]: 0 case
- Effective [3, 9]: 20 case
- Improved [3, 9]: 0 case
- Ineffective [3, 9]: 80 case
